In ChEMBL document CHEMBL4359862, “Cinnamamide: An insight into the pharmacological advances and structure-activity relationships” (Eur J Med Chem, 2019):
Each block holds one compound with its values, some of them ahead of it.

Legend:
MCF7 = experiment: Antiproliferative activity against human MCF7 cells assessed as reduction in cell viability incubated for 48 hrs by MTT assay; assay type: functional, cell-based; settings: MCF7, 48 h
[1] = biological target: T1, Amine oxidase [flavin-containing] B (Homo sapiens, UniProt P27338); experiment: Inhibition of recombinant human MAOB using kynuramine as substrate preincubated with substrate for 10 mins followed by enzyme addition and measured after 20 mins by fluorescence spectrophotometry
T1 sequence (P27338 whole entry): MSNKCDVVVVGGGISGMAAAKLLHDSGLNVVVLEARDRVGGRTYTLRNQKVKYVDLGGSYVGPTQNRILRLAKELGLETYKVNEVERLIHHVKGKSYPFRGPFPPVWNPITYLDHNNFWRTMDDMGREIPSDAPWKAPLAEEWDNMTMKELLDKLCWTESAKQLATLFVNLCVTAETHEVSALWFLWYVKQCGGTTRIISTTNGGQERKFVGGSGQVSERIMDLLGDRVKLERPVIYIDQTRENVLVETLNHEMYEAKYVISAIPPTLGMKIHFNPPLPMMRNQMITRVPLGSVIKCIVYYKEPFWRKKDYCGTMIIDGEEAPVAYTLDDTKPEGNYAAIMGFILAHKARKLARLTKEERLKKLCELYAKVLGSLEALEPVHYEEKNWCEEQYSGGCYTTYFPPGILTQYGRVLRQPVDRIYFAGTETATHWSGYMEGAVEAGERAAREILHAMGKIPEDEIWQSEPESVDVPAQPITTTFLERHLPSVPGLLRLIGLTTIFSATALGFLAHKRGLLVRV

[2] = biological target: T2, Tyrosinase (Agaricus bisporus) (UniProt O42713); experiment: Inhibition of mushroom tyrosinase at 25 uM using L-tyrosine as substrate incubated for 30 mins relative to control
T2 sequence (whole entry): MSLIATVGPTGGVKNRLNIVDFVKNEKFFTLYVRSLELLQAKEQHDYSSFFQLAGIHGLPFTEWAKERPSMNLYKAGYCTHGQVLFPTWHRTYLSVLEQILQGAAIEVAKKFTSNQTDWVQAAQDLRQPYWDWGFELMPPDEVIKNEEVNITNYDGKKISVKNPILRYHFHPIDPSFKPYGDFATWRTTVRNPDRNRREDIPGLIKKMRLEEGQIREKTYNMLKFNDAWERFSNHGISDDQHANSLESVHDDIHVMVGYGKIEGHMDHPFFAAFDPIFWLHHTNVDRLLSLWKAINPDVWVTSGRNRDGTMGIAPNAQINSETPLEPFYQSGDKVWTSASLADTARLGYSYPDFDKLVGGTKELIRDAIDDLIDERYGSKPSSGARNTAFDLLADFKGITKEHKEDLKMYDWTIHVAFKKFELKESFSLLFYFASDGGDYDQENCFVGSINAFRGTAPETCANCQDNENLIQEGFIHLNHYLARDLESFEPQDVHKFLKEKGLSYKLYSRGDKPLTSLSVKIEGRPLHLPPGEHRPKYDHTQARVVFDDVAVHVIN

DU-145 [3] = experiment: Antiproliferative activity against human DU145 cells assessed as reduction in cell viability incubated for 48 hrs by MTT assay; assay type: functional, cell-based; settings: DU-145, 48 h
U-937 = experiment: Cell cycle arrest in human U937 cells assessed as increase in accumulation in G2 phase incubated for 6 hrs by propidium iodide staining based flow cytometry; assay type: functional; settings: U-937, 6 h
DU-145 [4] = experiment: Antiproliferative activity against human DU145 cells; assay type: functional, cell-based
[5] = Inhibition of recombinant LFA1/ICAM1 (unknown origin) interaction in JY-8 cells expressing LFA1 incubated for 45 mins by fluorescence based assay; assay type: cell-based, Homo sapiens
Staphylococcus aureus = experiment: Antibacterial activity against Staphylococcus aureus ATCC 6538 assessed as reduction in bacterial cell viability incubated for 24 hrs by broth microdilution assay; assay type: functional, organism-based; settings: ATCC 6538, 24 h
MGC-803 = experiment: Antiproliferative activity against human MGC803 cells; assay type: functional, cell-based
Escherichia coli = experiment: Antibacterial activity against Escherichia coli assessed as reduction in bacterial cell viability incubated for 24 hrs by serial dilution assay; assay type: functional
Candida albicans = experiment: Antifungal activity against Candida albicans assessed as reduction in fungal cell growth incubated for 48 hrs by serial dilution assay; assay type: functional
[6] = biological target: Epidermal growth factor receptor (Homo sapiens, UniProt P00533); experiment: Inhibition of EGFR (unknown origin)
Sequence of Epidermal growth factor receptor (P00533 whole entry): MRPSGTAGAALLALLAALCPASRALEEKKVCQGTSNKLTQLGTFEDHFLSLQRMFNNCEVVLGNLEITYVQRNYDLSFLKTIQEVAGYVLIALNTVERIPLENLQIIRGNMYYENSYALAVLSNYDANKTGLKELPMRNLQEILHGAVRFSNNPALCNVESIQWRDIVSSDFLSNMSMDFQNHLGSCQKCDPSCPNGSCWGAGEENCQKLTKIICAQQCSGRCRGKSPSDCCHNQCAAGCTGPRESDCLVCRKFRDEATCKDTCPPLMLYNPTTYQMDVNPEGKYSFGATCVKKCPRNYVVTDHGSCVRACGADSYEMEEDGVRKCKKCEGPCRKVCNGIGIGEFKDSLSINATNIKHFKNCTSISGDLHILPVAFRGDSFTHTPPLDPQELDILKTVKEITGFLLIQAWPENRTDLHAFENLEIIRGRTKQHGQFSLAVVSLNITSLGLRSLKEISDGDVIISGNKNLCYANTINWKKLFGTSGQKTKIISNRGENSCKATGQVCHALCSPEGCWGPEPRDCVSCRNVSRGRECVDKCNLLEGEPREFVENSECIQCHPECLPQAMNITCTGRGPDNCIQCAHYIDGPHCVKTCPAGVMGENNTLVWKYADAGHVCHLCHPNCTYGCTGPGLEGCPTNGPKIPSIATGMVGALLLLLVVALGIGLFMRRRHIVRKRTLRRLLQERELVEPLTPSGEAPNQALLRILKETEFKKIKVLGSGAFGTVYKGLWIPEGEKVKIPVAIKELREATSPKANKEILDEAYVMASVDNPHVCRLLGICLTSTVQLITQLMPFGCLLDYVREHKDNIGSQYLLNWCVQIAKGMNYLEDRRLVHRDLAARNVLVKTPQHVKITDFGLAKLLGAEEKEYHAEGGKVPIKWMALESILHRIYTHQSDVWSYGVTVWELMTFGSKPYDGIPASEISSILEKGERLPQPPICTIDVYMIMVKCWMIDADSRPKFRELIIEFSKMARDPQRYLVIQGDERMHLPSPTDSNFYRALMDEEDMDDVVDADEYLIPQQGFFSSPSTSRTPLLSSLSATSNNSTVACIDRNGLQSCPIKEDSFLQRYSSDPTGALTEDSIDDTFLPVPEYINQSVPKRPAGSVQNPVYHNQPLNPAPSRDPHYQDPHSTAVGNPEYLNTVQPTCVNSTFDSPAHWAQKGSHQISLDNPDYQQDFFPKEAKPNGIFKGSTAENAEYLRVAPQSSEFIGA

[7] = biological target: Vascular endothelial growth factor receptor 2 (Homo sapiens, UniProt P35968); experiment: Inhibition of VEGFR (unknown origin)
Sequence of Vascular endothelial growth factor receptor 2 (P35968 whole entry): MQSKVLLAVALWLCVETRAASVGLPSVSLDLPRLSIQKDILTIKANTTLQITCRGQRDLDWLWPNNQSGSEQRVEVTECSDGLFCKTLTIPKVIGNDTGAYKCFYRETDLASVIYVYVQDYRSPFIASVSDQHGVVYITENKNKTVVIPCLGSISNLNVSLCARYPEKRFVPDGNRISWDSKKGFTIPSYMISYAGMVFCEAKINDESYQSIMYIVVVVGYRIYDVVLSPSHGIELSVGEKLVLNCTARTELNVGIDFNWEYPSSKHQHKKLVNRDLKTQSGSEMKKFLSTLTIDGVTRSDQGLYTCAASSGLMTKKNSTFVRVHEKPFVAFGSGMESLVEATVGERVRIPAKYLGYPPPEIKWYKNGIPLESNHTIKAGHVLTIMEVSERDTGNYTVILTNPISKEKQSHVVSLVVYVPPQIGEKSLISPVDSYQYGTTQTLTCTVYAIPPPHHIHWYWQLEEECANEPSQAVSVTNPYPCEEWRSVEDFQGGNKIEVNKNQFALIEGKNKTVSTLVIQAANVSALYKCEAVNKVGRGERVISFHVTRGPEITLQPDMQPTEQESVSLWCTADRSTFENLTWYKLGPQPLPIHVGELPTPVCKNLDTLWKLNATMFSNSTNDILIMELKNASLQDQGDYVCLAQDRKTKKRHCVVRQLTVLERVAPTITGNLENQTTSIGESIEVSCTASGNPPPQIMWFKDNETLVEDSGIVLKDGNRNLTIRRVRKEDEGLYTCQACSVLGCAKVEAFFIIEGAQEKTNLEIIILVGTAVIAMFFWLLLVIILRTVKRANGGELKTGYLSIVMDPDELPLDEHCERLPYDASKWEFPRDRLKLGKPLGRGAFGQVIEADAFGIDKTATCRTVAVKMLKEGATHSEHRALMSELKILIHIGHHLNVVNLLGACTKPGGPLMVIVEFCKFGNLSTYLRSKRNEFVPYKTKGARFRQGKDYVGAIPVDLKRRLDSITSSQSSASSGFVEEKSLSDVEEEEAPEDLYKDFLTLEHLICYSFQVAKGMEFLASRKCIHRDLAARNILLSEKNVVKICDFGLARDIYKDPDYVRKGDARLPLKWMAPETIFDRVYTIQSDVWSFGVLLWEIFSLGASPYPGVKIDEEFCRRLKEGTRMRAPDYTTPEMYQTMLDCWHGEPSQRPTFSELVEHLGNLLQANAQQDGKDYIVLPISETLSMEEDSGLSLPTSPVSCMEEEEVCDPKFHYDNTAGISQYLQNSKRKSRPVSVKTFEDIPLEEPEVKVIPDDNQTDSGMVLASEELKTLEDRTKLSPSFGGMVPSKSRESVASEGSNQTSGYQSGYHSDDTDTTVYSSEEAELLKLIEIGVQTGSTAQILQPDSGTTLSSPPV

HeLa S3 = experiment: Antiproliferative activity against human HeLaS3 cells assessed as reduction in cell viability incubated for 72 hrs by cell counter method; assay type: functional, cell-based; settings: HeLa S3, 72 h
[8] = Inhibition of recombinant LFA1/ICAM1 (unknown origin) interaction incubated for 1 hr by time resolved fluorimetry; design: species or system Homo sapiens

SMILES: CCCCCCCCCCCCNC(=O)/C=C/c1ccccc1 [N-DODECYLCINNAMAMIDE]
IC50 (MCF7): 11100 nM

SMILES: CC(C)(C)NC(=O)/C=C/c1ccccc1 [N-TERT-BUTYLCINNAMAMIDE]
IC50 (MCF7): 13400 nM

SMILES: O=C(/C=C/c1ccc(O)cc1)N1Cc2ccccc2[C@@H](OCc2ccccc2)[C@@H]1CO
IC50 (DU-145 [4]): 2080 nM

SMILES: O=C(O)C1CCN(C(=O)/C=C/c2ccc(Sc3ccc4c(c3)OCCO4)c(C(F)(F)F)c2C(F)(F)F)CC1
IC50 [5]: 0.5 nM

SMILES: COc1cc(/C=C/C(=O)NNC(=O)c2ccccc2)cc(OC)c1OC
IC50 (Staphylococcus aureus): 85200 nM

SMILES: CN(C)C(=O)/C=C/c1ccccc1
log(1/MIC) (Escherichia coli): 2.43
log(1/MIC) (Candida albicans): 2.43

SMILES: COc1ccc(/C=C/C(=O)N2C[C@H]3C[C@@]34C2=CC(=O)c2[nH]c(C)c(Br)c24)cc1
IC50 (HeLa S3): 0.065 nM

SMILES: O=C(/C=C/c1ccc(O)cc1O)NC1CCCC1
inhibition [2]: 94.1%

SMILES: COc1ccccc1Sc1ccc(/C=C/C(=O)N2CCC(C(=O)O)CC2)c(C(F)(F)F)c1C(F)(F)F
IC50 [5]: 0.1 nM

SMILES: O=C(O)C1CCCN(C(=O)/C=C/c2ccc(Sc3ccc4c(c3)OCCO4)c(C(F)(F)F)c2)C1 (stereo unspecified)
IC50 [8]: 25 nM

SMILES: COc1ccc(/C=C/C(=O)N2C[C@H]3C[C@@]34C2=CC(=O)c2[nH]c(C)c(Cl)c24)cc1
IC50 (HeLa S3): 0.029 nM

The remaining lines, values ahead:

EC50 [1]: 1200 nM
SMILES: O=C(/C=C/c1ccc(O)cc1)NCCc1c[nH]c2ccc(O)cc12 [N-P-COUMAROYL SEROTONIN]

inhibition [2]: 93.7%
SMILES: O=C(/C=C/c1ccc(O)cc1O)Nc1ccccc1

IC50 (DU-145 [3]): 7480 nM
SMILES: C=CCOc1cc(/C=C/C(=O)Nc2cc(OC)c(OC)c(OC)c2)ccc1N/C=C\C(=O)c1cc(N)c(OC)c(OC)c1

IC50 (U-937): 8000 nM
SMILES: COc1cccc(/C=C/C(=O)Nc2cc(OC)c(OC)c(OC)c2)c1

IC50 [5]: 65 nM
SMILES: CCc1ccccc1Sc1ccc(/C=C/C(=O)N2CCN(C(C)=O)CC2)cc1[N+](=O)[O-]

IC50 (MGC-803): 4240 nM
SMILES: CCCc1n[nH]c(C(N)=O)c1NC(=O)/C=C/c1cc(OC)c(OC)c(OC)c1

IC50 [6]: 9 nM
IC50 [7]: 3.6 nM
SMILES: COc1cc(/C=C/C(=O)Nc2cc3c(Nc4ccc(F)c(Cl)c4)ncnc3cc2O[C@@H]2CCOC2)cc(OC)c1OC

IC50 [8]: 90 nM
SMILES: CC(=O)N1CCN(C(=O)/C=C/c2ccc(Sc3ccc(Cl)cc3Cl)c([N+](=O)[O-])c2)CC1
